Data reported in US20230190967A1, “Method and Composition for Evaluating Response to Neurodegenerative Disease Treatment Agent” (GENUV INC., priority 2020, published 2023).
“Also recorded” adds a separate entry of the source. Read-outs that look alike come from different tables or passages of the source.

Key:
[1] = test system: 8-month-old 5XFAD mouse brain cortex; experiment: Single cell RNA sequencing of brain cortex: number of single cells analyzed per cell type; assay type: in vivo; conditions: 8-month-old 5XFAD mice cortex, trametinib 0.1 mg/kg/day
Experimental: (§1) Age-matched wild-type (WT) mice were orally administered vehicle for 2.5 months. Blood was obtained from all the mice at the age of 8 months after completion of the treatment and collected in EDTA tubes, which were centrifuged to obtain plasma. Mice were sacrificed by the perfusion method, and the brain cortex was extracted and immediately frozen.
(§2) Single-cell RNA sequencing analysis was performed on the 8-month-old 5XFAD mouse and wild type mouse brain cortex samples. The cortex was microdissected in HABG (Hibernate A buffer including B27 supplement and glutamine) media and digested in papain solution for 20 min at 37° C. (Brewer et al (2007). Isolation and culture of adult neurons and neurospheres. Nat Protoc 2, 1490-1498). Using a Pasteur pipette, the digested cortex was gently triturated. Cells were isolated by the density gradient method using OptiPrep (Sigma-Aldrich, D1556).
The cell suspension was diluted with Drop-seq buffer, and Drop-seq was performed using the Chromium™ Single Cell 3′ v2 Reagent Kit (Campbell et al. (2017). A molecular census of arcuate hypothalamus and median eminence cell types. Nat Neurosci 20, 484-496). Libraries were sequenced on the Illumina HiSeq X Ten, and Read 1 was 16 bp (10×™ Barcode and 10 bp UMI). […]

[2] = test system: 8-month-old 5XFAD mouse brain cortex
Experimental: as §1, §2
The cell suspension was diluted with Drop-seq buffer, and Drop-seq was performed using the Chromium™ Single Cell 3′ v2 Reagent Kit (Campbell et al. (2017). A molecular census of arcuate hypothalamus and median eminence cell types. Nat Neurosci 20, 484-496). Libraries were sequenced on the Illumina HiSeq X Ten, and Read 1 was 16 bp (10×™ Barcode and 10 bp UMI). Cells with either very low or too high mRNA content (to only include: 200<gene number <3,000) or a high fraction of mitochondrial encoded transcripts (>20%) were filtered out. Using 20,056 cells, raw sequence data were aligned to the mouse (mm10) genome, and analyses including PCA, t-SNE, and graph-based clustering were performed with the Cell Ranger Single-Cell software.
In addition to the microglial cells, the other brain cell types were also analyzed for the genes differentially expressed between the experimental groups.

[3] = test system: Spp1 mRNA; experiment: qRT-PCR of Spp1 mRNA expression in brain tissue of 5XFAD mice; assay type: in vivo, mouse; conditions: 0.1 mg/kg/day
Text: as §1
(§3) Blood was obtained from the 13-month-old mice after completion of the treatment and collected in EDTA tubes, which were centrifuged to obtain plasma. Mice were sacrificed, and the brain cortex was extracted, washed with PBS, and immediately frozen.
(§4) In addition, qRT-PCR was performed to measure the mRNA expression level in the brain tissue of each animal. […] Reverse transcription was performed using M-MLV reverse transcriptase (Invitrogen, 28025013). qRT-PCR was performed using the SYBRTM Green PCR master mix (Thermo, 4367659) according to the manufacturer's instructions. Results were expressed relative to the housekeeping gene GAPDH (Glyceraldehyde-3-Phosphate Dehydrogenase).

[4] = test system: Osteopontin (OPN); experiment: ELISA of plasma osteopontin in 5XFAD mice; assay type: in vivo, mouse; conditions: for Decrease of plasma osteopontin (OPN) level vs. 5XFAD-vehicle group: 8-month-old 5XFAD
Text: as §1, §3
(§5) ELISA was performed to detect changes in the level of biomarkers in the plasma of 5XFAD mice. The following ELISA kits were used for each of the biomarkers: • Neurofilament-light chain (NfL): Cloud-Clone, SEE038Mu • Cathepsin B (CTSB): Novus, NBP2-67254 • Osteopontin (OPN): LS bio, LS-F26046-1 • Synaptotagmin-1 (Syt1): LS bio, LS-F30963-1 • Apolipoprotein-E (ApoE): Novus, NBP2-66739
(§6) NfL, CTSB and ApoE were detected by colorimetric methods. OPN and Syt1 were detected by chemiluminescent methods. ELISA was performed according to the ELISA kit manufacturer's instructions.

[5] = test system: Synaptotagmin-1 (Syt1); experiment: ELISA of plasma synaptotagmin-1 in 5XFAD mice; assay type: in vivo, mouse; conditions: 8-month-old 5XFAD
Experimental: as §1, §5, §6

[6] = test system: Apolipoprotein-E (ApoE); experiment: ELISA of plasma apolipoprotein-E in 5XFAD mice; assay type: in vivo, mouse; conditions: 8-month-old 5XFAD
Experimental: as §1, §5, §6

[7] = test system: Cathepsin B (CTSB)
Text: as §1, §3, §5, §6

[8] = test system: Neurofilament-light chain (NfL); experiment: ELISA of plasma neurofilament light chain in 5XFAD mice; assay type: in vivo, mouse
Text: as §1, §3, §5, §6

[9] = test system: Map2, a dendrite marker; experiment: Immunohistochemical analysis of Map2 (dendrite/neurite marker) in brain tissue of 5XFAD mice; assay type: in vivo, mouse; conditions: 8-month-old 5XFAD mice, FIGS. 8 and 9
Text: as §1
The sections were counterstained with DAPI.

[10] = test system: C57BL/6 mice whole brain; experiment: Whole cell RNA sequencing of whole brain of C57BL/6 mice after 1, 2, 3, or 4 weeks of administration; assay type: in vivo, mouse; conditions: 0.1 mg/kg/day
Experimental: Mice were sacrificed after 1, 2, 3, or 4 weeks of administration. Whole brain was extracted.
Whole cell RNA sequencing analysis was performed with the RNA isolated from the whole brain of the mice to observe the change of genes in the brain during the administration period.
The whole cell RNA sequencing was performed as follows. RNA was isolated from the whole brains of the mice, and cDNA libraries for RNA sequencing were prepared using the TruSeq Stranded mRNA Prep Kit (Illumina, San Diego, Calif.) according to the manufacturer's guidelines. The libraries were sequenced on the Illumina Nextseq500 platform, and the reads were mapped to the reference Mouse mm10 genome using Tophat v2.0.13. After read mapping, transcript assembly was performed using StringTie program. The expression profile for each sample was obtained, and RPKM (Read per Kilobase per million mapped reads) values were calculated based on the transcripts/genes. To compare the gene expression levels in each experimental group, DEG (Differentially Expressed Genes) were analyzed using DESeq2. As a result, 196 genes satisfying |fc|>=2, p value <0.05 in at least one comparison set were extracted. The extracted gene information was checked in KEGG database (http://www.kegg.jp/kegg/pathway.html) to identify which pathway the genes belong to. Genes showing at least a twofold increase in the expression level in the corresponding pathway were marked bold, and those showing at least a twofold decrease were marked italic on the right side of the heatmap (FIG. 10).

[11] = test system: H2-Ob mRNA; experiment: qRT-PCR of H2-Ob mRNA expression in brain cortex of 5XFAD mice; assay type: in vivo, mouse; conditions: 8-month-old 5XFAD mice brain cortex, 0.1 mg/kg/day trametinib, FIG. 11
Experimental: as §1, §4

[12] = M (microglia), 8-month-old 5XFAD cortex, 0.1 mg/kg/day
[13] = microglia cluster, 5XFAD-Tra 0.1 group
[14] = 8-month-old 5XFAD, trametinib 0.1 mg/kg/day, statistically significant
[15] = C57BL/6 mice whole brain, at least twofold

With `CC(=O)Nc1cccc(-n2c(=O)n(C3CC3)c(=O)c3c(Nc4ccc(I)cc4F)n(C)c(=O)c(C)c32)c1` [trametinib, N-(3-{3-cyclopropyl-5-[(2-fluoro-4-iodophenyl)amino]-6,8-dimethyl-2,4,7-trioxo-3,4,6,7-tetrahydropyrido[4,3-d]pyrimidin-1(2H)-yl}phenyl)acetamide] the “Microglial population compared to the 5XFAD-vehicle group” value [1] was “decrease”, the “Log2(5XFAD-Tra0.1/5XFAD-Veh) ApoE (Apolipoprotein E)” value ([2]; Astro (Astrocyte), 8-month-old 5XFAD cortex, 0.1 mg/kg/day) was −0.5177 and the “Log2(5XFAD-Tra0.1/5XFAD-Veh) CTSB (Cathepsin B)” value ([2]; Endo (Endothelial), 8-month-old 5XFAD cortex, 0.1 mg/kg/day) was 0.8182. The “Log2(5XFAD-Tra0.1/5XFAD-Veh) CTSE (Cathepsin E)” value [2, 12] was −0.543, the “Log2(5XFAD-Tra0.1/5XFAD-Veh) Spp1 (Osteopontin)” value [2, 12] was −0.646 and the “Decrease of Spp1 expression compared to the 5XFAD-vehicle group” value [2, 13] was “at least 1.5 fold”. For the same molecule, the “Decrease of Wfdc17 expression compared to the 5XFAD-vehicle group” value [2, 13] was “at least 1.5 fold”, the “Expression of the Spp1 gene (in words)” value [2, 13] was “decreased” and the “Increase of Acta2 expression compared to the 5XFAD-vehicle group” value [2, 13] was “at least 1.5 fold”. The “Increase of Ptgds expression compared to the 5XFAD-vehicle group” value [2, 13] was “at least 1.5 fold”, the “Increase of Rpl9-ps6 expression compared to the 5XFAD-vehicle group” value [2, 13] was “at least 1.5 fold” and the “Increase of Rpl10-ps3 expression compared to the 5XFAD-vehicle group” value [2, 13] was “at least 1.5 fold”. For the same molecule, the “Spp1 level (mRNA) compared with the 5XFAD-vehicle group” value ([3]; 8-month-old 5XFAD mice cortex, FIG. 1A) was “decreasing trend”, the “Spp1 level (mRNA) compared with the 5XFAD-vehicle group” value ([3]; 13-month-old 5XFAD mice brain, FIG. 1B) was “decreasing trend” and the “Decrease of plasma osteopontin (OPN) level vs. 5XFAD-vehicle group” value ([4]; trametinib 0.05 mg/kg/day) was 40%. The “Decrease of plasma osteopontin (OPN) level vs. 5XFAD-vehicle group” value ([4]; trametinib 0.1 mg/kg/day) was 43.9%, the “Decrease of plasma osteopontin (OPN) level vs. vehicle group” value ([4]; 13-month-old 5XFAD, trametinib 0.1 mg/kg/day 1 month, statistically significant) was 61.5% and the “Decrease of plasma synaptotagmin-1 (Syt1) level vs. 5XFAD-vehicle group” value ([5]; trametinib 0.05 mg/kg/day) was 26.2%. The “Decrease of plasma synaptotagmin-1 (Syt1) level vs. 5XFAD-vehicle group” value ([5]; trametinib 0.1 mg/kg/day) was 41.0%, the “Decrease of plasma apolipoprotein-E (APOE) level vs. 5XFAD-vehicle group” value ([6]; trametinib 0.1 mg/kg/day) was 34.3% and the “Decrease of plasma apolipoprotein-E (APOE) level vs. 5XFAD-vehicle group” value ([6]; trametinib 0.2 mg/kg, statistically significant) was 58.9%. The “Decrease of plasma cathepsin B level vs. 5XFAD-vehicle group” value ([7]; 8-month-old 5XFAD, trametinib 0.05 mg/kg/day) was 62.4%, the “Decrease of plasma cathepsin B level vs. 5XFAD-vehicle group” value [7, 14] was 99% and the “Decrease of plasma cathepsin B level vs. 5XFAD-vehicle group” value ([7]; 13-month-old 5XFAD, trametinib 0.1 mg/kg/day 1 month, FIG. 6) was 35%. The “Decrease of plasma neurofilament light chain (NfL) level vs. 5XFAD-vehicle group” value [8, 14] was 47.4%, the “Plasma NfL levels, vehicle vs. trametinib-administered groups” value ([8]; 13-month-old 5XFAD, trametinib 0.1 mg/kg/day 1 month, FIG. 7B) was “did not show a significant difference” and the “Neurite marker (Map2) in the brain tissue” value [9] was “increased”. For the same molecule, the “Genes showing an increase in the expression level in weeks 1 and 2” value [10, 15] was “Oprm1, Glp1r, Grin2a, Grin2b, Glra3,; also recorded: Glra1, Cnr2, Grin3b, Gabrr2, Ksr2, Cdh1,; also recorded: Tead4, Ctnna3, PDE11a, Nt5cla”, the “Genes showing an increase in the expression level in weeks 3 and 4” value [10, 15] was “Plin4, H2-Ob, Hspa1l, HSPa1b, Hnmpa1,; also recorded: Nos2, Rab5c” and the “Genes showing a decrease in the expression level in weeks 1 and 2” value [10, 15] was “Pla2g4c, C1s2”. The “Genes showing a decrease in the expression level in weeks 3 and 4” value [10, 15] was “Efna4, Scd4, Cd36, Ppp3r2”, the “H2-Ob level (whole brain RNA sequencing)” value ([10]; C57BL/6 mice, 3 and 4 weeks after the administration) was “remarkably increased” and the “H2-Ob mRNA expression level compared to the 5XFAD-vehicle group” value [11] was “significantly increased”.
